target: full-length recombinant human FYN A (Homo sapiens (Human), UniProt P06241); test: ADP-Glo Kinase Assay of FYN kinase inhibition; type: biochemical; settings: primary screen, initial compounds
Summary of the method: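 ADP-Glo read-out of peptide phosphorylation after 90 min RT with 12.5 pmol ATP and 100 pg 12-mer substrate. Enzyme was N-GST full-length human FYN A from insect cells, 3 pg, pre-incubated 30 min with compound, 10 points from 10 μM top, 3-fold steps; IC50 from curve.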

Chain of full-length recombinant human FYN A (P06241 whole entry): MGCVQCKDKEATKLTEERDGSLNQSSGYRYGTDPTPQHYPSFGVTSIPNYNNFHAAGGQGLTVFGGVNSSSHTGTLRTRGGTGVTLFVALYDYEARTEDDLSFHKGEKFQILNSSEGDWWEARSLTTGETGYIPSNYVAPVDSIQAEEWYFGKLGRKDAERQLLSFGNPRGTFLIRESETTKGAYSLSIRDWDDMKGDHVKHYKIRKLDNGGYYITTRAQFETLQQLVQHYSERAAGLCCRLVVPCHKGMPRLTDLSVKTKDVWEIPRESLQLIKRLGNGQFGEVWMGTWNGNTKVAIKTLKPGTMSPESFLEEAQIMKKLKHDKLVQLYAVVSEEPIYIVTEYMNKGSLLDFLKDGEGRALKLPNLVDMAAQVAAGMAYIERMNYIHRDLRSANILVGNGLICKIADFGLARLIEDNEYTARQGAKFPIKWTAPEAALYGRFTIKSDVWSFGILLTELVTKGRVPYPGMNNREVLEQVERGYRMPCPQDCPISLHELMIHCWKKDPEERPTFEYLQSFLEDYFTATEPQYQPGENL

Compound	IC50
COc1cc(-c2cc(-c3ccoc3)cnc2N)cc(OC)c1OC [382_0087_0343, 5-(3-furyl)-3-(3,4,5-trimethoxy-phenyl)pyridin-2-amine]	12.1 µM
COc1cccc(-c2cnc(N)c(-c3cc(OC)c(OC)c(OC)c3)c2)c1 [382_0087_4140, 5-(3-methoxyphenyl)-3-(3,4,5-trimethoxyphenyl) pyridin-2-amine]	9.5 µM
CN(C)CCCOc1ccc(-c2cnc(N)c(-c3cccc(N(C)C)c3)c2)cn1 [382_0135_0002, 3-[3-(dimethylamino)phenyl]-5-[6-[3-(dimethyl-amino)propoxy]-3-pyridyl]pyridin-2-amine]	4.66 µM
CN(C)c1cccc(-c2cc(-c3cccnc3)cnc2N)c1 [382_0135_0071, 3-[3-(dimethyl-amino)phenyl]-5-(3-pyridyl)pyridin-2-amine]	7.11 µM
COc1ccc(-c2cnc(N)c(-c3cccc(N(C)C)c3)c2)cc1OC [382_0135_0079, 5-(3,4-dimethoxy-phenyl)-3-[3-(dimethylamino)phenyl]pyridin-2-amine]	5.05 µM
COc1cc(-c2cnc(N)c(-c3cccc(N(C)C)c3)c2)cc(OC)c1OC [382_0135_0087, 3-[3-(dimethyl-amino)phenyl]-5-(3,4,5-trimethoxy-phenyl)pyridin-2-amine]	3.13 µM
CN(C)c1cccc(-c2cc(-c3cccc(C(=O)NCCO)c3)cnc2N)c1 [382_0135_0192, 3-[6-amino-5-[3-(dimethylamino)phenyl]-3-pyridyl]-N-(2-hydroxyethyl) benzamide]	3.57 µM
CN1CCN(C(=O)c2cccc(-c3cnc(N)c(-c4cccc(N(C)C)c4)c3)c2)CC1 [382_0135_0200, [3-[6-amino-5-[3-(dimethylamino)phenyl]-3-pyridyl]phenyl]-(4-methyl-piperazin-1-yl)methanone]	4.44 µM
CN(C)c1cccc(-c2cc(-c3cccc(CO)c3)cnc2N)c1 [382_0135_0291, [3-[6-amino-5-[3-(dimethylamino)phenyl]-3-pyridyl]phenyl] methanol]	2.7 µM
COc1cc(-c2cnc(N)c(-c3cccc(N(C)C)c3)c2)ccc1O [382_0135_0314, 4-[6-amino-5-[3-(dimethylamino)phenyl]-3-pyridyl]-2-methoxy-phenol]	2.11 µM
Cc1cc(-c2cnc(N)c(-c3cccc(N(C)C)c3)c2)cc(C)c1O [382_0135_0315, 4-[6-amino-5-[3-(dimethylamino)phenyl]-3-pyridyl]-2,6-dimethyl-phenol]	4.2 µM
CN(C)c1cccc(-c2cc(-c3cccc(C(N)=O)c3)cnc2N)c1 [382_0135_0347, 3-[6-amino-5-[3-(dimethylamino)phenyl]-3-pyridyl] benzamide]	3.52 µM
Nc1ncc(-c2ccc(N3CCOCC3)cc2)cc1-c1cccc(O)c1 [382_0284_0001, 3-[2-amino-5-(4-morpholino-phenyl)-3-pyridyl]phenol]	4.64 µM
COc1ccc(-c2cnc(N)c(-c3cccc(O)c3)c2)cc1OC [382_0284_0079, 3-[2-amino-5-(3,4-dimethoxy-phenyl)-3-pyridyl]phenol]	2 µM
COc1ccc(-c2cnc(N)c(-c3ccc(CO)cc3)c2)cc1OC [382_0285_0079, [4-[2-amino-5-(3,4-dimethoxy-phenyl)-3-pyridyl]phenyl] methanol]	5.13 µM
Cc1cc(-c2cnc(N)c(-c3ccc(CO)cc3)c2)cc(C)c1O [382_0285_0315, 4-[6-amino-5-[4-(hydroxymethyl)phenyl]-3-pyridyl]-2,6-dimethyl-phenol]	4.64 µM
COc1cc(-c2cc(-c3ccc(F)c(Cl)c3)cnc2N)ccc1O [382_0314_0164, 4-[2-amino-5-(3-chloro-4-fluoro-phenyl)-3-pyridyl]-2-methoxy-phenol]	11.3 µM
COc1cc(-c2cc(-c3cccc(Cl)c3)cnc2N)ccc1O [382_0314_0279, 4-[2-amino-5-(3-chlorophenyl)-3-pyridyl]-2-methoxy-phenol]	3.51 µM
COc1ccc(-c2cnc(N)c(-c3ccc(O)c(OC)c3)c2)cc1 [382_0314_0280, 4-[2-amino-5-(4-methoxyphenyl)-3-pyridyl]-2-methoxy-phenol]	4.16 µM
COc1cc(-c2cc(-c3cccc(F)c3)cnc2N)ccc1O [382_0314_0313, 4-[2-amino-5-(3-fluorophenyl)-3-pyridyl]-2-methoxy-phenol]	2.03 µM
COc1cc(-c2cc(-c3ccc(F)cc3)cnc2N)ccc1O [382_0314_0339, 4-[2-amino-5-(4-fluorophenyl)-3-pyridyl]-2-methoxy-phenol]	3.24 µM
COc1cc(-c2cc(-c3ccc(C)cc3)cnc2N)ccc1O [382_0314_4139, 4-[2-amino-5-(p-tolyl)-3-pyridyl]-2-methoxy-phenol]	4.34 µM
COCOc1ccc(-c2cc(-c3cccc(CO)c3)cnc2N)cc1 [382_0341_0291, [3-[6-amino-5-[4-(methoxymethoxy)phenyl]-3-pyridyl]phenyl] methanol]	4.62 µM

The next compounds have a lower IC50 than those just listed; values first:

IC50	Compound
0.4 µM	COc1cc(-c2cc(-c3ccc(C(N)=O)cc3)cnc2N)cc(OC)c1OC [382_0087_0346, 4-[6-amino-5-(3,4,5-trimethoxy-phenyl)-3-pyridyl]benzamide]
0.525 µM	COc1cc(-c2cc(-c3cccc(NS(C)(=O)=O)c3)cnc2N)cc(OC)c1OC [382_0087_6488, N-[3-[6-amino-5-(3,4,5-trimethoxy-phenyl)-3-pyridyl]phenyl] methane-sulfonamide]
1.73 µM	COc1cc(-c2cc(-c3ccc(O)cc3)cnc2N)cc(OC)c1OC [382_0087_7249, 4-[6-amino-5-(3,4,5-trimethoxy-phenyl)-3-pyridyl]phenol]
0.507 µM	COc1cc(-c2cc(-c3ccc(C(=O)NC4CC4)cc3)cnc2N)cc(OC)c1OC [382_0087_7489, 4-[6-amino-5-(3,4,5-trimethoxy-phenyl)-3-pyridyl]-N-cyclopropyl-benzamide]
1.02 µM	COc1cc(-c2cnc(N)c(-c3cccc(O)c3)c2)cc(OC)c1OC [382_0284_0087, 3-[2-amino-5-(3,4,5-trimethoxy-phenyl)-3-pyridyl]phenol]
1.48 µM	COc1cc(-c2cc(-c3ccccc3)cnc2N)ccc1O [382_0314_0061, 4-(2-amino-5-phenyl-3-pyridyl)-2-methoxy-phenol]
0.0806 µM	COc1cc(-c2cc(-c3cc(OC)c(OC)c(OC)c3)cnc2N)ccc1O [382_0314_0087, 4-[2-amino-5-(3,4,5-trimethoxy-phenyl)-3-pyridyl]-2-methoxy-phenol]
0.349 µM	COc1cc(-c2cc(-c3ccc(S(C)(=O)=O)cc3)cnc2N)ccc1O [382_0314_0174, 4-[2-amino-5-(4-methylsulfonyl-phenyl)-3-pyridyl]-2-methoxy-phenol]
0.526 µM	COc1cc(-c2cc(-c3cc(C)c(O)c(C)c3)cnc2N)ccc1O [382_0314_0315, 4-[6-amino-5-(4-hydroxy-3-methoxy-phenyl)-3-pyridyl]-2,6-dimethyl-phenol]
1.2 µM	COc1cccc(-c2cnc(N)c(-c3ccc(O)c(OC)c3)c2)c1 [382_0314_4140, 4-[2-amino-5-(3-methoxyphenyl)-3-pyridyl]-2-methoxy-phenol]
1.55 µM	COCOc1ccc(-c2cc(-c3cccc(NC(C)=O)c3)cnc2N)cc1 [382_0341_0081]
1.9 µM	COCOc1ccc(-c2cc(-c3cc(OC)c(OC)c(OC)c3)cnc2N)cc1 [382_0341_0087, 3-[4-(methoxymethoxy)phenyl]-5-(3,4,5-trimethoxy-phenyl)pyridin-2-amine]

From patent US10688093B2, “Methods, compositions, and uses of novel Fyn kinase inhibitors” (priority 2015, dated 2020)
